# Source: US8785638B2, “Thieno [2, 3-B] pyridine derivatives as viral replication inhibitors” (Katholieke Universiteit Leuven, priority 2009, dated 2014)
# Where two headings read alike, the source gives them in different places.
# Experiments:
# [1] = system: HIV-1 (IIIB), HIV-1 (NL4.3); assay: microbe, parasite or virus in culture; assay type: cell-based; settings: for EC50: Human immunodeficiency virus 1, IIIB, MT4, MT-4 cells, 50% protection against HIV-induced cytopathogenic effect, MTT; for SI: selectivity index, ratio of CC50 to EC50
# Description: (§1) A rapid and automated assay procedure was used for the in vitro evaluation of anti-HIV agents. An HTLV-1 transformed T4-cell line MT-4, which was previously shown to be highly susceptible to and permissive for HIV infection, served as the target cell line. Inhibition of the HIV-induced cytopathogenic effect was used as the end point. The viabitlity of both HIV- and mock-infected cells was assessed spectrophotometrically via in situ reduction of 3-(4,5-dimethylthiazol-2-yl)-2,5-diphenyltetrazolium bromide (MTT). The 50% cytotoxic concentration (CC50 in μM or μg/ml) was defined as the concentration of compound that reduced the absorbance of the mock-infected control sample by 50%. The percent protection achieved by the compound in HIV-infected cells was calculated by the following formula:
# (§2) [formula] whereby (ODT)HIV is the optical density measured with a given concentration of the test compound in HIV-infected cells; (ODC)HIV is the optical density measured for the control untreated HIV-infected cells; (ODC)MOCK is the optical density measured for the control untreated mock-infected cells; all optical density values were determined at 540 nm. The dose achieving 50% protection according to the above formula was defined as the 50% inhibitory concentration (EC50 in μM or μg/ml). The ratio of CC50 to EC50 was defined as the selectivity index (SI). […] Examples of inhibition of cell proliferation by particular compounds of the invention can be found by looking at the respective CC50 values in the MT-4 cell line. Cells:
# (§3) MT-4 cells (Miyoshi et al., 1982) were grown and maintained in RPMI 1640 medium supplemented with 10% heat-inactivated fetal calf serum, 2 mM I-glutamine, 0.1% sodium bicarbonate, and 20 μg of gentamicin per ml. Alternatively, the MT-4 cells may also be grown in RPMI 1640 medium supplemented with 10% FCS and 20 μg/ml of gentamicin (RPMI-complete).
# The HIV-1 (IIIB) strain (Popovic et al., 1984) as well as the HIV-1 (NL4.3) strain (Adachi et al., J. Virol. 59, 284-291 (1986)) were used.
# [2] = Cytotoxicity in mock-infected MT-4 cells (MTT); assay type: cell-based; settings: human, 50% cytotoxic concentration
# Description: as §1, §2, §3
# [3] = target: LEDGF/p75-HIV-1 integrase interaction (Human immunodeficiency virus type 1 group M subtype B (isolate HXB2) (HIV-1), UniProt P04585); assay: AlphaScreen assay of LEDGF-integrase interaction inhibition; assay type: binding
# Description: Alphascreen Assay to Measure the LEDGF-Integrase Interaction Inhibitory Activity of Compounds of the Invention
# The AlphaScreen assay was performed according to the manufacturer's protocol (Perkin Elmer, Benelux). Reactions were performed in 25 μl final volume in 384-well Optiwell™ microtiter plates (Perkin Elmer). The reaction buffer contained 25 mM Tris-HCl (pH 7.4), 150 mM NaCl, 1 mM MgCl2, 0.01% (v/v) Tween-20 and 0.1% (w/v) bovine serum albumin. His6-tagged integrase (300 nM final concentration) was incubated with the compounds for 30 min at 4° C. The compounds were added at varying concentrations spanning a wide range from 0.1 up to 100 μM. Afterwards 100 nM flag-LEDGF/p75 was added and incubation was prolonged for an additional hour at 4° C. Subsequently 5 μl of Ni-chelate-coated acceptor beads and 5 μl anti-flag donor beads were added to a final concentration of 20 μg/ml of both beads. Proteins and beads were incubated for 1 h at 30° C. in order to allow association to occur. Exposure of the reaction to direct light was omitted as much as possible and the emission of light from the acceptor beads was measured in the EnVision plate reader (Perkin Elmer, Benelux) and analyzed using the EnVision manager software. IN/DNA binding was analyzed in a similar setting using His6-tagged integrase (1 μM final concentration) and an oligodeoxynucleotide mimicking the IN ELISA oligonucleotide substrate (30 nM final concentration). Counterscreens with JPO2 or PogZ, respectively, were essentially performed as described previously.
# His6-tagged HIV-1 integrase, 3xflag-tagged LEDGF/p75, MBP-JPO2 and MBP-PogZ were purified for AlphaScreen applications as described previously 23,25,56.
# [4] = His6-tagged integrase 300 nM, flag-LEDGF/p75 100 nM, read-out: Alphascreen IC50
Compound,EC50 [1] [µM],SI [1],CC50 [2] [µM],"IC50 [3, 4] [µM]",IC50 [3] [µM]
"CCCC(C(=O)O)c1c(C)nc2sc3c(c2c1-c1ccc(OC)c(OC)c1)CCCC3 (centres unmarked) [Cpd 145, 2-[2-Methyl-4-(3,4-dimethoxyphenyl)-5,6,7,8-tetrahydro[1]benzothieno[2,3-b]pyridin-3-yl]pentanoic acid]",123,>1,> 125,29.6,
"CCC[C@@H](C(=O)O)c1c(C)nc2sc3c(c2c1-c1ccc(C)cc1)CCCC3 [Cpd 115, (2R)-[2-Methyl-4-p-tolyl-5,6,7,8-tetrahydro[1]benzothieno[2,3-b]pyridin-3-yl]pentanoic acid]",5.03,26,131,17.6,
"Cc1ccc(-c2c(CC(=O)O)c(C)nc3sc4c(c23)CCC4)cc1 [Cpd 101, [2-Methyl-4-p-tolyl-6,7-dihydro-5H-cyclopenta[4,5]thieno[2,3-b]pyridin-3-yl]acetic acid]",64.1,>2,> 125,55.3,
"CCCC(C(=O)O)c1c(C)nc2sc(C)c(C)c2c1-c1ccc(C)cc1 (centres unmarked) [Cpd 108, 2-(2,3,6-Trimethyl-4-p-tolylthieno[2,3-b]pyridin-5-yl)pentanoic acid]",2.19,27,57.9,4.48,
"Cc1ccc(-c2c(C(CCCC(F)(F)F)C(=O)O)c(C)nc3sc4c(c23)CCCC4)cc1 (centres unmarked) [Cpd 147, 2-[2-Methyl-4-(p-tolyl)-5,6,7,8-tetrahydro[1]benzothieno[2,3-b]pyridin-3-yl]-6,6,6-trifluorohexanoic acid]",8.79,5,41.5,23.7,
"CCCC(C(=O)O)c1c(C)nc2sc3c(c2c1-c1ccccc1F)CCCC3 (centres unmarked) [Cpd 153, 2-[2-Methyl-4-(2-fluorophenyl)-5,6,7,8-tetrahydro[1]benzothieno[2,3-b]pyridin-3-yl]pentanoic acid]",17,>8,> 125,43.6,
"Cc1ccc(-c2c(C(CC(C)(C)C)C(=O)O)c(C)nc3sc4c(c23)CCCC4)cc1 (centres unmarked) [Cpd 162, 2-[2-Methyl-4-(p-tolyl)-5,6,7,8-tetrahydro[1]benzothieno[2,3-b]pyridin-3-yl]-4,4-dimethylpentanoic acid]",0.33,217,71.7,1.57,
"CCCC(C(=O)O)c1c(C)nc2sc3c(c2c1-c1ccccc1)CCC3 (centres unmarked) [Cpd 107, 2-[2-Methyl-4-phenyl-6,7-dihydro-5H-cyclopenta[4,5]thieno[2,3-b]pyridin-3-yl]pentanoic acid]",13.2,8,75.7,34.7,
"COCCC(C(=O)O)c1c(C)nc2sc3c(c2c1-c1ccc(C)cc1)CCC3 (centres unmarked) [Cpd 122, 2-[2-methyl-4-(p-tolyl)-6,7-dihydro-5H-cyclopenta[4,5]thieno[2,3-b]pyridin-3-yl]-4-O-methoxy-butanoic acid]",5.3,15,79.8,3.2,
"COCC(C(=O)O)c1c(C)nc2sc3c(c2c1-c1ccc(C)cc1)CCC3 (centres unmarked) [Cpd 125, 2-[2-Methyl-4-(p-tolyl)-6,7-dihydro-5H-cyclopenta[4,5]thieno[2,3-b]pyridin-3-yl]-3-methoxypropanoic acid]",66.5,>2,> 125,77,
"Cc1ccc(-c2c(C(OC(C)(C)C)C(=O)O)c(C)nc3sc4c(c23)CCCC4)cn1 (centres unmarked) [Cpd 184, 2-[2-methyl-4-(6-methylpyridin-3-yl)-5,6,7,8-tetrahydro[1]benzothieno[2,3-b]pyridin-3-yl]-2-tert-butoxyacetic acid]",0.157,1513,237,3.44,
"CCC(C)C(C(=O)O)c1c(C)nc2sc3c(c2c1-c1ccc(C)cc1)CCCC3 (centres unmarked) [Cpd 157, 2-[2-Methyl-4-(p-tolyl)-5,6,7,8-tetrahydro[1]benzothieno[2,3-b]pyridin-3-yl]-3-methylpentanoic acid]",> 35,,35,26.4,
"CCCC(C(=O)O)c1c(C)nc2sc3c(c2c1-c1cccc(OC)c1)CCCC3 (centres unmarked) [Cpd 144, 2-[2-Methyl-4-(m-anisyl)-5,6,7,8-tetrahydro[1]benzothieno[2,3-b]pyridin-3-yl]pentanoic acid]",20,3,63,,6.64
"Cc1ccc(-c2c(C(Cc3ccccc3)C(=O)O)c(C)nc3sc4c(c23)CCC4)cc1 (centres unmarked) [Cpd 134, 2-[2-Methyl-4-(4-methylphenyl)-6,7-dihydro-5H-cyclopenta[4,5]thieno[2,3-b]pyridin-3-yl]-3-phenylpropanoic acid]",> 114,,114,84.1,
"CCCC(C(=O)O)c1c(C)nc2sccc2c1-c1ccc(C)cc1 (centres unmarked) [Cpd 119, 2-(6-Methyl-4-p-tolylthieno[2,3-b]pyridin-5-yl)pentanoic acid]",31.6,4,109,2.66,
"CCCC(C(=O)NC#N)c1c(C)nc2sc3c(c2c1-c1ccc(C)cc1)CCCC3 (centres unmarked) [Cpd 166, N-cyano-2-[2-Methyl-4-p-tolyl-5,6,7,8-tetrahydro[1]benzothieno[2,3-b]pyridin-3-yl]pentanamide]",> 131,,131,3,
"CCCC(C(=O)O)c1c(C)nc2sc3c(c2c1-c1ccc(Cl)cc1)CCC3 (centres unmarked) [Cpd 112, 2-[2-Methyl-4-(4-chlorophenyl)-6,7-dihydro-5H-cyclopenta[4,5]thieno[2,3-b]pyridin-3-yl]pentanoic acid]",0.803,84,67.7,1.11,
"Cc1nc2sc3c(c2c(-c2ccc4ncsc4c2)c1C(OC(C)(C)C)C(=O)O)CCCC3 (centres unmarked) [Cpd 186, 2-[2-methyl-4-(benzo[d]thiazol-6-yl)-5,6,7,8-tetrahydro[1]benzothieno[2,3-b]pyridin-3-yl]-2-tert-butoxyacetic acid]",0.038,2900,110,0.43,
"CCCC(C(=O)O)c1c(C)nc2sc3c(c2c1-c1ccco1)CCC3 (centres unmarked) [Cpd 129, 2-[2-Methyl-4-(2-furyl)-6,7-dihydro-5H-cyclopenta[4,5]thieno[2,3-b]pyridin-3-yl]pentanoic acid]",> 130,,130,48,
"Cc1ccc(-c2c(C(CCc3ccccc3)C(=O)O)c(C)nc3sc4c(c23)CCCC4)cc1 (centres unmarked) [Cpd 155, 2-[2-Methyl-4-(p-tolyl)-5,6,7,8-tetrahydro[1]benzothieno[2,3-b]pyridin-3-yl]-4-phenylbutanoic acid]",> 22,,22,81.9,
"Cc1ccc(-c2c(C(OC(C)(C)C)C(=O)O)c(C)nc3sc4c(c23)CCCC4)cc1 (centres unmarked) [Cpd 170, 2-[2-Methyl-4-p-tolyl-5,6,7,8-tetrahydro[1]benzothieno[2,3-b]pyridin-3-yl]-2-tert-butoxyacetic acid]",0.0263,4429,116,0.05,
"CCCC(C(=O)O)c1c(C)nc2sc3c(c2c1-c1cccc(Cl)c1)CCCC3 (centres unmarked) [Cpd 138, 2-[2-Methyl-4-(3-chlorophenyl)-5,6,7,8-tetrahydro[1]benzothieno[2,3-b]pyridin-3-yl]pentanoic acid]",43.3,2,100,39.9,
